We go through one compound from US11591306B2, “Vitamin E-based amphipathic compound, and use thereof” (Industry-University Cooperation Foundation Hanyang …, priority 2017, dated 2023).

For test [1], the target named is T1, β2AR-Gs complex (Homo sapiens, UniProt P07550).
T1 construct: made in house
The test is described as follows: β2AR-Gs complex stability by analytical gel filtration (SEC). To be noted: complex purified in VEG-3, 3 and 15-day incubation, compound-free running buffer. The protocol: 100 μM β2AR solubilized in 0.1% DDM mixed with 120 μM Gs heterotrimer for 30 minutes at room temperature. 0.5-unit apyrase (NEB) and 2 mM MgCl2 were added to facilitate complex formation, followed by further incubation for one hour. Subsequently, 1.0% VEG-3 was added such that the final concentration reached 0.2%, and the sample was further incubated for 30 minutes to change DDM to VEG-3. The protein solution was loaded into a M1 Flag column, washed with a series of buffers with different molar ratios of 0.1% DDM buffer to 0.5% VEG-3 buffer to completely change DDM to VEG-3, and the receptor-Gs complex was finally eluted with a 0.05% VEG-3 buffer. Preparative gel filtration was performed to purify the β2AR-Gs complex with a running buffer (20 mM HEPES pH 7.5, 100 mM NaCl, 0.005% DTM-A6, 1 mM BI, […]). To measure the stability of the β2AR-Gs complex in VEG-3, analytical gel filtrations were performed using the running buffer as above, but after 3 and 15-day incubation, performed without VEG-3 (compound-free condition).
(In gel filtration, larger molecules generally elute earlier.)

The target in test [2] is UapA (Emericella nidulans, UniProt Q07307, G411V). The test is described as follows: UapA thermal stability, CPM assay. To be noted: CMC+0.2 wt %, 40° C. for 120 minutes. Also noted: made in house; host or cells: Saccharomyces cerevisiae FGY217 membranes. The protocol:
UapAG411VΔ1-11 (hereinafter, referred to as “UapA”) was expressed in a Saccharomyces cerevisiae FGY217 strain by GFP fusion, and isolated into a sample buffer (20 mM Tris (pH 7.5), 150 mM NaCl, 0.03% DDM, 1 mM xanthine), which was performed according to the method disclosed in the paper written by J. Leung et al. (Mol. Menthr. Biol. 2013, 30, 32-42). The protein was concentrated to be approximately 10 mg/ml using a 100 kDa molecular weight cutoff filter (Millipore). The protein was diluted 1:150 with a buffer containing DDM, VEG (VEG-1, VEG-2, VEG-3, VEG-4 or VEG-5) or LMNG at CMC+0.2 wt % in Greiner 96. CPM dye (Invitrogen) stored in DMSO (Sigma) was diluted with a dye buffer (20 mM Tris (pH 7.5), 150 mM NaCl, 0.03% DDM, 5 mM EDTA), and 3 μL of the diluted dye was added to an individual protein sample. The reaction mixture was treated at a constant temperature of 40° C. for 120 minutes. A fluorescence emission intensity was monitored using a microplate spectrofluorometer set to excitation and emission wavelengths of 387 and 463 nm, respectively. The maximum fluorescence value was used to calculate the percentage of a protein folded during incubation. The relative amount of the folded protein was plotted over time using GraphPad Prism.

The target of test [3] is T2, MelBSt (melibiose permease) (Salmonella typhimurium, UniProt P30878).
T2 construct: made in house; host or cells: E. coli DW2 (ΔmelB and ΔlacZY), plasmid pK95ΔAHB/WT MelBSt/CH10
T2 sequence (P30878 whole entry): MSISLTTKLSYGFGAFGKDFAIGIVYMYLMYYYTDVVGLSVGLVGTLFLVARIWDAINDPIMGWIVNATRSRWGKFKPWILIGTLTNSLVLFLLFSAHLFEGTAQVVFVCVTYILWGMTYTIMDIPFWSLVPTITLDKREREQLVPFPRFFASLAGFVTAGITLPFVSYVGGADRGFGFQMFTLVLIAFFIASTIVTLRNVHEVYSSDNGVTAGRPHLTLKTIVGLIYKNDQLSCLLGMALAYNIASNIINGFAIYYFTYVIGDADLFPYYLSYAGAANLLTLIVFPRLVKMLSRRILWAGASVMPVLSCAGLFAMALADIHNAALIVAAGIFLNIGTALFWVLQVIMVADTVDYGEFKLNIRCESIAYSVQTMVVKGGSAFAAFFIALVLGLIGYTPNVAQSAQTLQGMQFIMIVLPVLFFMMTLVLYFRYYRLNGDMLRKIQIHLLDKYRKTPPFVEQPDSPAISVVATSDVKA
The test is described as follows: MelBSt extraction/solubilization and thermal stability, SDS-PAGE and Western blotting. The protocol: Specifically, Salmonella typhimurium MelBSt (melibiose permease) having a 10 His tag at the C-terminus was expressed in E. coli DW2 cells (ΔmelB and ΔlacZY) using a pK95ΔAHB/WT MelBSt/CH10 plasmid. Cell growth and membrane preparation were carried out according to the methods disclosed in the paper written by A. S. Ethayathulla et al. (Nat. Commun. 2014, 5, 3009). A protein assay was performed using a Micro BCA kit (Thermo Scientific, Rockford, Ill.). MelBSt stability in VEGs or DDM was evaluated using the protocol disclosed in Nat. Methods 2010, 7, 1003-1008, written by P. S. Chae et al. A MelBSt-containing membrane sample (the final protein concentration was 10 mg/mL) was incubated in a solubilization buffer containing 1.5% (w/v) DDM or VEGs (50 mM sodium phosphate, pH 7.5, 200 mM NaCl, 10% glycerol, 20 mM melibiose) at two different temperatures (0 and 23° C.) for 90 minutes. To remove an insoluble material, ultracentrifugation was performed using a Beckman Optima™ MAX ultracentrifuge equipped with a TLA-100 rotor at 355,590 g and 4° C. for 30 minutes. […] The loaded samples were analyzed by SDS-15% PAGE, and then visualized by immunoblotting with a Penta-His-HRP antibody (Qiagen, Germantown, Md.).
To assess the thermal stability of MelBSt in various amphipathic molecules, MelBSt extracted with individual amphipathic molecules at 23° C. was subjected to additional thermal treatment at three different temperature (45, 55 and 65° C.) and ultracentrifugation, followed by SDS-15% PAGE and Western blotting. MelBSt was detected using a SuperSignalWest Pico chemiluminescent substrate by an ImageQuant LAS 4000 Biomolecular Imager (GE Healthcare Life Science).
In general terms: In western blotting, separated proteins are transferred to a membrane and probed.

UapA, sequence (Q07307 12-574 G411V): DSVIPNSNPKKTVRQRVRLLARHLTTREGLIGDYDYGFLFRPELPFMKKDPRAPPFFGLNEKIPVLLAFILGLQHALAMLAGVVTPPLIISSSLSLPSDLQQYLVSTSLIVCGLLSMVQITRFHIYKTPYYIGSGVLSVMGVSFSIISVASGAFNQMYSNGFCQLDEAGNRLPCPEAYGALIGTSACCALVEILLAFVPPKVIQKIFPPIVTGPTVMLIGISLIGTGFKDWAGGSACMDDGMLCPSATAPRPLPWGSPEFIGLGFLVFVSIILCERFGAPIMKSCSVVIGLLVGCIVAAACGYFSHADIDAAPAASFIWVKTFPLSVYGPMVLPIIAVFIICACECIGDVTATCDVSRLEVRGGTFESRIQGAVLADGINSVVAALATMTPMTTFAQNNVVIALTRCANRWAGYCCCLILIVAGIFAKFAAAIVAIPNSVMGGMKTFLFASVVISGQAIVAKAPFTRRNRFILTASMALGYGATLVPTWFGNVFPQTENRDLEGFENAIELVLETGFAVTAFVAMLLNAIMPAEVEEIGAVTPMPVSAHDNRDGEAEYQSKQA
T1 sequence (P07550 whole entry): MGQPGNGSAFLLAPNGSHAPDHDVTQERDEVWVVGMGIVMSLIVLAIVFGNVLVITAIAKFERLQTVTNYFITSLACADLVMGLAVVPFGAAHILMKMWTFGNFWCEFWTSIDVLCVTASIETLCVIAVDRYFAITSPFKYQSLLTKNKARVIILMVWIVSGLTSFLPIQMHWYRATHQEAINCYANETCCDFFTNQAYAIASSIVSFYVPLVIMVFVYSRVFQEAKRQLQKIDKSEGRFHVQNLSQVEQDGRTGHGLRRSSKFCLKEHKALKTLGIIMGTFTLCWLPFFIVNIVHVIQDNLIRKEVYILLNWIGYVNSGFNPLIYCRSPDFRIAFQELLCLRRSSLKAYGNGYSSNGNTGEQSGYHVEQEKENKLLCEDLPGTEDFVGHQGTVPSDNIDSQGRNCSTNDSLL
T1 sequence (P63092 whole entry partner): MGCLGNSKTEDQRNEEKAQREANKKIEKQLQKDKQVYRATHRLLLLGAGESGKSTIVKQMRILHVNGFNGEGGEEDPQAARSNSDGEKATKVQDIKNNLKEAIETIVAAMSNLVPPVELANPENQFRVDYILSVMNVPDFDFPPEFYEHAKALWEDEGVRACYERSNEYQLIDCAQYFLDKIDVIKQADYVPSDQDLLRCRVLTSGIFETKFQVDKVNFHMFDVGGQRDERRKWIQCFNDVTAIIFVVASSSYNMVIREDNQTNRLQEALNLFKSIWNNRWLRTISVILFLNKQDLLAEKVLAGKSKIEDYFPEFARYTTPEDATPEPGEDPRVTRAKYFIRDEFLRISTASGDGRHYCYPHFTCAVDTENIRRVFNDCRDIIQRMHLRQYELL
T1 sequence (P62873 whole entry partner): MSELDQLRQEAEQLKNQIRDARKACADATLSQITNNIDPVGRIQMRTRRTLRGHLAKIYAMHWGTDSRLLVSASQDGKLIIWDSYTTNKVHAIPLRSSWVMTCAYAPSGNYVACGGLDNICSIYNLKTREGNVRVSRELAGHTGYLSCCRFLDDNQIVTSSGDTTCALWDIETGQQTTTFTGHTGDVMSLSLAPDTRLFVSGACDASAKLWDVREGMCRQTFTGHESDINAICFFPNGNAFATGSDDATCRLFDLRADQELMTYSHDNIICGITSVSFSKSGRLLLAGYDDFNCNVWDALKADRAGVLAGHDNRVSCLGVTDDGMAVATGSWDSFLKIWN
T1 sequence (P59768 2-68 partner limits assumed): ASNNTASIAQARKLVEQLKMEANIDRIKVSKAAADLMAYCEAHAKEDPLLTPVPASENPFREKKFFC

On to `Cc1c(C)c2c(c(C)c1OCC(=O)NC(CO[C@@H]1OC(CO)[C@@H](O[C@H]3OC(CO)[C@@H](O)[C@H](O)C3O)[C@H](O)C1O)CO[C@@H]1OC(CO)[C@@H](O[C@H]3OC(CO)[C@@H](O)[C@H](O)C3O)[C@H](O)C1O)CCC(C)(CCCC(C)CCCC(C)CCCC(C)C)O2` (stereo partly shown) [VEG-3], for which the “Integrity of the purified β2AR-Gs complex (SEC)” value in test [1] is given as “continuously maintains its integrity as a complex for 15 days”. Further, the “Ability to maintain UapA in a structurally stable state (CPM assay)” value in test [2] is “excellent ability to maintain UapA in a structurally stable state”. Also, the MelBSt solubilization ability entry in test [3] (1.5 wt %, extracted at 23° C., then 65° C.) is on record as “very excellent protein solubilization ability”. The “MelBSt transporter solubilization ability in the thermal stability experiment” value in test [3] (elevated temperatures (overall)) is “higher transporter solubilization ability than DDM”.
